Results from ChEMBL document CHEMBL1127810, “Synthesis of high specific activity [3H]-9-cis-retinoic acid and its application for identifying retinoids with unusual binding properties” (J Med Chem, 1994).

What was measured:
[1] = molecular target: T1, Retinoic acid receptor beta (Homo sapiens, UniProt P10826); test: Binding affinity against retinoic Acid beta receptors co-transfected into CV-1 cells; format: cell-based
T1 sequence (P10826 whole entry): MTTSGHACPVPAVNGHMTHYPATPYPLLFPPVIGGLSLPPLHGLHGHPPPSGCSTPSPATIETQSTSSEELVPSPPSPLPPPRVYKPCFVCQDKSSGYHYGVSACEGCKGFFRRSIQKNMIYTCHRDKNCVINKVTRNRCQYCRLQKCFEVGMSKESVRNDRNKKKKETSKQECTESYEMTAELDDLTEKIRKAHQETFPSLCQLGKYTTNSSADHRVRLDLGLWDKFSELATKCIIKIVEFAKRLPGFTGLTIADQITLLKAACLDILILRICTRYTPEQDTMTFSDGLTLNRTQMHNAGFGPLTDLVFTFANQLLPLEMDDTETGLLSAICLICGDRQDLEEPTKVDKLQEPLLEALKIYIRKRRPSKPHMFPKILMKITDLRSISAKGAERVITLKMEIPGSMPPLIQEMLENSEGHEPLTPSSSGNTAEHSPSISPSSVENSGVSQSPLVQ

[2] = molecular target: T2, Retinoic acid receptor gamma (Homo sapiens, UniProt P13631)
T2 sequence (P13631 whole entry): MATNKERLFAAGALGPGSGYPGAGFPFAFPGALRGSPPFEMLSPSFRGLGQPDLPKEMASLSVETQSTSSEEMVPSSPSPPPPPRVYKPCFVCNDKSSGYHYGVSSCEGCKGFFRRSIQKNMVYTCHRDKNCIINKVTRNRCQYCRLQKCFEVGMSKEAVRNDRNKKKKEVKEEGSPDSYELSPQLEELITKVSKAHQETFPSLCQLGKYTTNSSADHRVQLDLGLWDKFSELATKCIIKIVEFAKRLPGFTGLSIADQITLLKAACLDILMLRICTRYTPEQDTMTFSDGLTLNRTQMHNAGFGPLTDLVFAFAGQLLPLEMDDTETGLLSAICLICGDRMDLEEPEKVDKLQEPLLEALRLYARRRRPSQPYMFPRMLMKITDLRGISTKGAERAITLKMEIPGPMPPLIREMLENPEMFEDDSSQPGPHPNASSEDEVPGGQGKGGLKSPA
Description: Binding affinity against retinoic Acid gamma receptors co-transfected into CV-1 cells

[3] = molecular target: T2, Retinoic acid receptor gamma; remark: listed apart in the source
[4] = molecular target: T3, Retinoic acid receptor RXR-beta (Homo sapiens, UniProt P28702); test: Binding affinity against retinoic Acid X beta receptor using [3H]- -9-cis-Retinoic Acid in competitive binding assay
T3 sequence (P28702 whole entry): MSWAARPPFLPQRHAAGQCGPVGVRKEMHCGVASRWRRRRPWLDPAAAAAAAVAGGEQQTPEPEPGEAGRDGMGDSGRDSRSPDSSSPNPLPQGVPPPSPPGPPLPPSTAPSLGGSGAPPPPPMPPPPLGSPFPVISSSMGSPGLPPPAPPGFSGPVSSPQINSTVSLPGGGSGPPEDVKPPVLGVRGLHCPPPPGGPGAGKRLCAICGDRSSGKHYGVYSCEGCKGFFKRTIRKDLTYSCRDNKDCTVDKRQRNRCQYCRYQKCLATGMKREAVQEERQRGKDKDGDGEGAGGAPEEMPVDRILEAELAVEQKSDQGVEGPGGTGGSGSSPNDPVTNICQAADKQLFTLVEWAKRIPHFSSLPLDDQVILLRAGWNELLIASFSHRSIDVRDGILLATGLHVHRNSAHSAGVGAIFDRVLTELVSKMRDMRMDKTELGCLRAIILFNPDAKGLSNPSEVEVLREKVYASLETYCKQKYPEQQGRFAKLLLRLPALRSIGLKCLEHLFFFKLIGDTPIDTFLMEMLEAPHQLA

[5] = molecular target: T4, Retinoic acid receptor RXR-alpha (Homo sapiens, UniProt P19793); test: Binding affinity against retinoic Acid X alpha receptors co-transfected into CV-1 cells; format: cell-based
T4 sequence (P19793 whole entry): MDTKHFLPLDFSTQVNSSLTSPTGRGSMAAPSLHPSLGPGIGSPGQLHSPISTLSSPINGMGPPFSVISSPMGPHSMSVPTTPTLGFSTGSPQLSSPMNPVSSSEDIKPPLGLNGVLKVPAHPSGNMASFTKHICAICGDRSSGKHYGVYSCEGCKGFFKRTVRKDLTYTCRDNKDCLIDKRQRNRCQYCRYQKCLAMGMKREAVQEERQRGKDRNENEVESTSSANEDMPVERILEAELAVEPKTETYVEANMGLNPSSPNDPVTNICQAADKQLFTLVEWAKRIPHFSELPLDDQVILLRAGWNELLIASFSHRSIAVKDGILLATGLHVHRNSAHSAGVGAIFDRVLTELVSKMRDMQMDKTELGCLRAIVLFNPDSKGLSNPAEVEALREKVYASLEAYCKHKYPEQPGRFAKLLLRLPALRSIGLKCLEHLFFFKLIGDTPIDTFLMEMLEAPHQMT

[6] = molecular target: T5, Retinoic acid receptor alpha (Homo sapiens, UniProt P10276); test: Binding affinity against retinoic Acid alpha receptor using [3H]- -9-cis-Retinoic Acid in competitive binding assay
T5 sequence (P10276 whole entry): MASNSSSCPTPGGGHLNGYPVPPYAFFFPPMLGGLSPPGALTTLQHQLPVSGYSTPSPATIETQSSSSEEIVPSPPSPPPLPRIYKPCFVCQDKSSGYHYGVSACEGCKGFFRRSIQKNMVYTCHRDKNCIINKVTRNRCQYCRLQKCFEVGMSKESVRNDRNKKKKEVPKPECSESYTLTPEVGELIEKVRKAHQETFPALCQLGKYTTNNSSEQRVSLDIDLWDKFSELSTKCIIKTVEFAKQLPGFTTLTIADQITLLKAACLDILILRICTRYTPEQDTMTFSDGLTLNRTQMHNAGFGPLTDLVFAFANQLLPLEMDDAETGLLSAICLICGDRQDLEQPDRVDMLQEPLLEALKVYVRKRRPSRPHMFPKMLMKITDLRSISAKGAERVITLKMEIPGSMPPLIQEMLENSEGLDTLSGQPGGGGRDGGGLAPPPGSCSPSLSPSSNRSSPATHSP

[7] = molecular target: T1, Retinoic acid receptor beta; test: Binding affinity against retinoic Acid beta receptor using [3H]- -9-cis-Retinoic Acid in competitive binding assay
[8] = molecular target: T6, Retinoic acid receptor RXR-gamma (Homo sapiens, UniProt P48443); test: Binding affinity against retinoic Acid X gamma receptors co-transfected into CV-1 cells; format: cell-based
T6 sequence (P48443 whole entry): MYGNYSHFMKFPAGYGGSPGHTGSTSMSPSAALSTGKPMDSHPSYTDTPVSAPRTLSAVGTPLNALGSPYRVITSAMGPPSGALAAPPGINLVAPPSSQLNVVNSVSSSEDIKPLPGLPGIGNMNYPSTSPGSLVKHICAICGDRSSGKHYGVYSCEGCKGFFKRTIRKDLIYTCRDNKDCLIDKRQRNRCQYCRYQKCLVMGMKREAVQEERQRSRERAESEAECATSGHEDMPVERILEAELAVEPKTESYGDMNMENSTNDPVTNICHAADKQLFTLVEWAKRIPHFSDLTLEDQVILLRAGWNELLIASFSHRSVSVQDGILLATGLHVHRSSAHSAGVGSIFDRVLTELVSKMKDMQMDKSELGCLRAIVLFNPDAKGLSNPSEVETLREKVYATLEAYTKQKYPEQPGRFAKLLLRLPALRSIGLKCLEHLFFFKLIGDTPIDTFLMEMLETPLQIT

[9] = molecular target: T3, Retinoic acid receptor RXR-beta; test: Binding affinity against retinoic Acid X beta receptors co-transfected into CV-1 cells; format: cell-based
[10] = molecular target: T4, Retinoic acid receptor RXR-alpha; test: Binding affinity against retinoic Acid X alpha receptor using [3H]- -9-cis-Retinoic Acid in competitive binding assay
[11] = molecular target: T5, Retinoic acid receptor alpha; test: Binding affinity against retinoic Acid alpha receptors co-transfected into CV-1 cells; format: cell-based
[12] = molecular target: T6, Retinoic acid receptor RXR-gamma; test: Binding affinity against retinoic Acid X gamma receptor using [3H]- -9-cis-Retinoic Acid in competitive binding assay

SMILES	EC50 [1]	EC50 [2]	IC50 [3]	IC50 [4]	EC50 [5]	IC50 [6]	IC50 [7]	EC50 [8]	EC50 [9]	IC50 [10]	EC50 [11]	IC50 [12]
C/C(=C\c1ccc(C(=O)O)cc1)c1cc2c(cc1C(C)C)C(C)(C)CCC2(C)C	> 10000 nM	270 nM	> 1000 nM	50 nM	300 nM	> 1000 nM	150 nM	2700 nM	> 10000 nM	320 nM	> 10000 nM	10 nM
CCc1cc2c(cc1/C(C)=C/c1ccc(C(=O)O)cc1)C(C)(C)CCC2(C)C	310 nM	23 nM	250 nM	50 nM	2900 nM	100 nM	75 nM	2600 nM	2000 nM	320 nM	1700 nM	10 nM
C/C(=C\c1ccc(C(=O)O)cc1)c1cc2c(cc1C)C(C)(C)CCC2(C)C	230 nM	180 nM	645 nM	> 1000 nM	1200 nM	638 nM	1170 nM	1500 nM	1170 nM	32 nM	340 nM	100 nM
C/C(=C\c1ccc(C(=O)O)cc1)c1ccc2c(c1)C(C)(C)CCC2(C)C				> 1000 nM	> 10000 nM			> 10000 nM	> 10000 nM	> 1000 nM		> 1000 nM
